In patent US6846492B2, “Use of phenylethylamine derivatives for the antimicrobial treatment of surfaces” (Ciba Specialty Chemicals Corporation, priority 2000, dated 2005):

Experiments:
Assay type in all cases: cell-based
[1] = tested on: Staphylococcus hominis DMS 20328 (= SH); assay: MIC determination in microtiter plates, Staphylococcus hominis; conditions: Tables 2a/2b, 48 hours at 37° C., ≦20% growth, optical density 620 nm, tested at 120, 60, 30, 15, 7.5 and 3.5 ppm, some approximate
Description: (§1) Determination of the Minimum Inhibitory Concentration (MIC Value) in Microtiter Plates
(§2) Casein/soybean flour peptone bouillon for the preparation of pre-cultures of the test bacteria and yeast.
(§3) Mycological slant agar for the pre-culture of moulds
(§4) The test substances are pre-dissolved in dimethyl sulfoxide (DMSO) and tested in a dilution series of 1:2.
(§5) Bacteria and yeast are cultured overnight in CASO bouillon, the mould is cultured overnight on mycological slant agar, and washed off with 10 ml of 0.85% sodium chloride solution (+0.1% TritonX-100).
(§6) All the test organisms are adjusted to an organism count of 1−5×10^6 CFU/ml using 0.85% sodium chloride solution.
(§7) The test substances are pre-pipetted into microtiter plates in an amount of 8 μl per well.
(§8) Pre-diluted organism suspensions are diluted 1:100 in CASO bouillon (bacteria and yeast) or Sabouraud 2% glucose bouillon (mould) and are added in an amount of 192 μl per well to the test substances.
(§9) The test batches are incubated for 48 hours at 37° C. (bacteria and yeast) or for 5 days at 28° C. (mould).
(§10) After incubation, the growth is evaluated by reference to the turbidity of the test batches (optical density) at 620 nm in a microplate reader.
(§11) One microtiter plate is used for each test organism and substance concentration. All the substances are tested in duplicate.

[2] = tested on: Escherichia coli NCTC 8196 (= EC); assay: MIC determination in microtiter plates, Escherichia coli; conditions: Tables 2a/2b, 48 hours at 37° C., ≦20% growth, optical density 620 nm, some approximate values
Description: as §1, §2, §3, §4, §5, §6, §7, §8, §9, §10, §11

[3] = tested on: Pseudomonas aeruginosa CIP A-22 (= PA); assay: MIC determination in microtiter plates, Pseudomonas aeruginosa; conditions: Tables 2a/2b, 48 hours at 37° C., ≦20% growth, optical density 620 nm, some approximate values
Description: as §1, §2, §3, §4, §5, §6, §7, §8, §9, §10, §11

[4] = tested on: Candida albicans ATCC 10231 (= CA); assay: MIC determination in microtiter plates, Candida albicans; conditions: Tables 2a/2b, 48 hours at 37° C., ≦20% growth, optical density 620 nm, some approximate values
Description: as §1, §2, §3, §4, §5, §6, §7, §8, §9, §10, §11

[5] = tested on: Aspergillus niger ATCC 6275 (= AN); assay: MIC determination in microtiter plates, Aspergillus niger; conditions: Tables 2a/2b, 5 days at 28° C., ≦20% growth, optical density 620 nm, some approximate values
Description: as §1, §2, §3, §4, §5, §6, §7, §8, §9, §10, §11

Row | SMILES | MIC [ppm] SH [1] [ppm] | MIC [ppm] EC [2] | MIC [ppm] PA [3] [ppm] | MIC [ppm] CA [4] [ppm] | MIC [ppm] AN [5] [ppm]
1 | CCCCCCCCCOc1ccc(CCN)cc1OCCCCCCCCC [Compound 39] | 60 | >120 ppm | >120 | >120 | >120
2 | CCCCCCCCCCOc1ccc(CCN)cc1OCCCCCCCCCC [Compound 40] | >120 | >120 ppm | >120 | >120 | >120
3 | NCCc1ccc(OC2CCCC2)c(OC2CCCC2)c1 [Compound 41] | 120 | 120 ppm | >120 | 120 | >120
4 | C=CCOc1ccc(CCN)cc1OCC=C [Compound 42] | >120 | >120 ppm | >120 | >120 | >120
5 | C=CCCOc1ccc(CCN)cc1OCCC=C [Compound 43] | >120 | >120 ppm | >120 | >120 | >120
6 | C=CCCCOc1ccc(CCN)cc1OCCCC=C [Compound 44] | 60 | 60 ppm | >120 | 60 | >120
7 | N#Cc1ccc(COc2cc(CCN)cc(OCc3ccc(C#N)cc3)c2OCc2ccc(C#N)cc2)cc1 [Compound 64] | >120 | >120 ppm | >120 | 60 | 15
8 | COC(=O)c1ccc(COc2cc(CCN)cc(OCc3ccc(C(=O)OC)cc3)c2OCc2ccc(C(=O)OC)cc2)cc1 [Compound 65] | 15 | >120 ppm | >120 | 60 | >120
9 | NCCc1cc(OCc2ccccc2F)c(OCc2ccccc2F)c(OCc2ccccc2F)c1 [Compound 66] | 15 | 15 ppm | >120 | 120 | >120
10 | NCCc1cc(OCc2cccc(F)c2)c(OCc2cccc(F)c2)c(OCc2cccc(F)c2)c1 [Compound 67] | 3.75 | 7.5 ppm | >120 | 7.5 | >120
11 | NCCc1cc(OCc2ccc(F)cc2)c(OCc2ccc(F)cc2)c(OCc2ccc(F)cc2)c1 [Compound 68] | 3.75 | 3.75 ppm | >120 | 3.75 | >120
12 | CC(C)(C)c1ccc(COc2cc(CCN)cc(OCc3ccc(C(C)(C)C)cc3)c2OCc2ccc(C(C)(C)C)cc2)cc1 [Compound 69] | >120 | >120 ppm | >120 | >120 | >120
13 | NCCc1cc(OCc2ccccc2)c(OCc2ccccc2)c(OCc2ccccc2)c1 [Compound 70] | 7.5 | 7.5 ppm | >120 | 15 | >120
14 | NCCc1cc(OCc2ccc3ccccc3c2)c(OCc2ccc3ccccc3c2)c(OCc2ccc3ccccc3c2)c1 [Compound 71] | >120 | >120 ppm | >120 | >120 | >120
15 | COC(=O)COc1cc(CCN)cc(OCC(=O)OC)c1OCC(=O)OC [Compound 72] | >120 | >120 ppm | >120 | >120 | >120
16 | CCOC(=O)COc1cc(CCN)cc(OCC(=O)OCC)c1OCC(=O)OCC [Compound 73] | >120 | >120 ppm | >120 | >120 | >120
17 | CCCOC(=O)COc1cc(CCN)cc(OCC(=O)OCCC)c1OCC(=O)OCCC [Compound 74] | >120 | >120 ppm | >120 | >120 | >120
18 | CC(C)OC(=O)COc1cc(CCN)cc(OCC(=O)OC(C)C)c1OCC(=O)OC(C)C [Compound 75] | 60 | >120 ppm | >120 | >120 | >120
19 | NCCc1cc(OCC(=O)OCc2ccccc2)c(OCC(=O)OCc2ccccc2)c(OCC(=O)OCc2ccccc2)c1 [Compound 77] | 120 | >120 ppm | >120 | >120 | >120
20 | CCOC(=O)CCCOc1cc(CCN)cc(OCCCC(=O)OCC)c1OCCCC(=O)OCC [Compound 78] | >120 | >120 ppm | >120 | >120 | >120
21 | CCOC(=O)CCCCOc1cc(CCN)cc(OCCCCC(=O)OCC)c1OCCCCC(=O)OCC [Compound 79] | >120 | >120 ppm | >120 | >120 | 120
22 | CCCOc1cc(CCN)cc(OCCC)c1OCCC [Compound 80] | 120 | 120 ppm | >120 | >120 | 120
23 | CCCCOc1cc(CCN)cc(OCCCC)c1OCCCC [Compound 81] | 15 | 7,5 ppm | 120 | 30 | >120
24 | CC(C)Oc1cc(CCN)cc(OC(C)C)c1OC(C)C [Compound 82] | >120 | >120 ppm | >120 | >120 | >120
25 | CCC(C)Oc1cc(CCN)cc(OC(C)CC)c1OC(C)CC (centres unmarked) [Compound 83] | >120 | 30 ppm | >120 | 120 | >120
26 | CC(C)CCOc1cc(CCN)cc(OCCC(C)C)c1OCCC(C)C [Compound 84] | 3.75 | 7.5 ppm | >120 | 15 | 15
27 | CCC(CC)Oc1cc(CCN)cc(OC(CC)CC)c1OC(CC)CC [Compound 86] | 7.5 | 15 ppm | >120 | 60 | 30
28 | NCCc1cc(OC2CCCC2)c(OC2CCCC2)c(OC2CCCC2)c1 [Compound 92] | 15 | 15 ppm | >120 | 60 | 120
